# From publication PMC6519835, “A family AA5_2 carbohydrate oxidase from Penicillium rubens displays functional overlap across the AA5 family” (PLoS ONE, 2019)
# T1: PruAA5_2A (Penicillium rubens, UniProt B6HHT0)
# T1 construct: gene Pc21g18600; recombinant from P. pastoris
# T1 sequence (B6HHT0 22-657): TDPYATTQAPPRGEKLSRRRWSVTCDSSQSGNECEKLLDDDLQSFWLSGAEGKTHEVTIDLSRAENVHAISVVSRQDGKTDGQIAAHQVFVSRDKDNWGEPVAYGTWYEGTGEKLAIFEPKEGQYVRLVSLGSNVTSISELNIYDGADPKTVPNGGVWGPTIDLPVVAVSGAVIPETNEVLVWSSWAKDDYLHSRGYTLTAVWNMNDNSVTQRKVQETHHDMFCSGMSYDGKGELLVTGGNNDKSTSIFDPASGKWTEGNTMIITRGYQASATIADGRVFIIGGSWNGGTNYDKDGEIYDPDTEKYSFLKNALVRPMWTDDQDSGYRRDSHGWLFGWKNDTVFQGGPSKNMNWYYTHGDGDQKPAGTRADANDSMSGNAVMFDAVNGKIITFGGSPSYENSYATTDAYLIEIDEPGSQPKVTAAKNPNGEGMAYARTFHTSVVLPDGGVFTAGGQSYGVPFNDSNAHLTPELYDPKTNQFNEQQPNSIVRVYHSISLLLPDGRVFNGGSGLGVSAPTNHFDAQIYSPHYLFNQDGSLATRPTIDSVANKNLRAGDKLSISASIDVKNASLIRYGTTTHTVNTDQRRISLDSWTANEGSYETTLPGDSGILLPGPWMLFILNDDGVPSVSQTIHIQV
# What was measured:
# PruAA5_2A [1] = target: T1, PruAA5_2A; assay: purified enzyme specific activity and kinetics (HRP/ABTS assay); assay type: biochemical
# PruAA5_2A [2] = target: T1, PruAA5_2A; assay: purified enzyme specific activity at […] (HRP/ABTS assay); assay type: biochemical
# [3] = target: T2, FgrGaOx (galactose oxidase) (Fusarium graminearum, UniProt P0CS93); assay type: biochemical
# T2 construct: gene GAOA
# T2 sequence (P0CS93 42-680 limits assumed): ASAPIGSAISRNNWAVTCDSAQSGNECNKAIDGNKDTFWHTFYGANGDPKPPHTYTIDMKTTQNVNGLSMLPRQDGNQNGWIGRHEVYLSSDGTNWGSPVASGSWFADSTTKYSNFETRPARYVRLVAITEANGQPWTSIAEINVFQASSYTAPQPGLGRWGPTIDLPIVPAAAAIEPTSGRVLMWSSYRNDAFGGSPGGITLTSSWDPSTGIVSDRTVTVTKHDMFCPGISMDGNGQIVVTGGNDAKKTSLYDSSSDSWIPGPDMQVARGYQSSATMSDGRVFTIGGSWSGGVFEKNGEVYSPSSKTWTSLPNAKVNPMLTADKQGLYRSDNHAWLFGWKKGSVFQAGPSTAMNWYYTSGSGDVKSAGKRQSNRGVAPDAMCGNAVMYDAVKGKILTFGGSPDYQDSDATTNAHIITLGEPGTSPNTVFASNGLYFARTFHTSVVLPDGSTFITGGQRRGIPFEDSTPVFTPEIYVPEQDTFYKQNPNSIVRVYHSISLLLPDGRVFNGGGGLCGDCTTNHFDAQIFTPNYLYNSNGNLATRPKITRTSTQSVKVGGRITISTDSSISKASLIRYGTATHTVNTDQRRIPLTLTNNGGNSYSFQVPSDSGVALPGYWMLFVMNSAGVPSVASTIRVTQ
# [4] = target: T2, FgrGaOx (galactose oxidase); assay type: biochemical; remark: listed apart in the source
# PruAA5_2A [5] = target: T1, PruAA5_2A; assay: purified enzyme kinetics (HRP/ABTS assay) and MS of the C-6 oxidized product; […] U/mg at […]; assay type: biochemical
# purified protein = substrate: OC1COC(O)CO1; assay: purified protein; assay type: biochemical, Penicillium rubens; conditions: copper; Tyr-Cys radical cofactor
molecule,measurement,setting,value
OCC(O)CO [glycerol],purified enzyme specific activity and kinetics (HRP/ABTS assay),PruAA5_2A [1],22.5 U/mg
OC[C@H]1O[C@H](OC[C@H]2O[C@H](OC[C@H]3O[C@H](O[C@]4(CO)O[C@H](CO)[C@@H](O)[C@@H]4O)[C@H](O)[C@@H](O)[C@@H]3O)[C@H](O)[C@@H](O)[C@H]2O)[C@H](O)[C@@H](O)[C@H]1O [stachyose],purified enzyme specific activity at 300 mM (HRP/ABTS assay),PruAA5_2A [2],9.4 U/mg
OC[C@H]1O[C@H](OC[C@H]2OC(O)[C@H](O)[C@@H](O)[C@@H]2O)[C@H](O)[C@@H](O)[C@H]1O (stereo partly shown) [melibiose],purified enzyme specific activity at 300 mM (HRP/ABTS assay),PruAA5_2A [2],17.5 U/mg
OC[C@H]1OC(O)[C@H](O)[C@@H](O)[C@H]1O (stereo partly shown) [galactose],"purified enzyme kinetics (HRP/ABTS assay), kcat/KM 20 s^-1*mM^-1",[3],20000 M⁻¹ s⁻¹
OC[C@H]1O[C@H](OC[C@H]2O[C@H](O[C@]3(CO)O[C@H](CO)[C@@H](O)[C@@H]3O)[C@H](O)[C@@H](O)[C@@H]2O)[C@H](O)[C@@H](O)[C@H]1O [raffinose],"purified enzyme kinetics (HRP/ABTS assay), kcat/KM 30 s^-1*mM^-1",[4],30000 M⁻¹ s⁻¹
same,purified enzyme kinetics (HRP/ABTS assay) and MS of the C-6 oxidized product; 31,PruAA5_2A [5],31.4 U/mg
"PruAA5_2A (Penicillium rubens Wisconsin 54-1255) (protein, recombinant from P. pastoris) TDPYATTQAPPRGEKLSRRRWSVTCDSSQSGNECEKLLDDDLQSFWLSGAEGKTHEVTIDLSRAENVHAISVVSRQDGKTDGQIAAHQVFVSRDKDNWGEPVAYGTWYEGTGEKLAIFEPKEGQYVRLVSLGSNVTSISELNIYDGADPKTVPNGGVWGPTIDLPVVAVSGAVIPETNEVLVWSSWAKDDYLHSRGYTLTAVWNMNDNSVTQRKVQETHHDMFCSGMSYDGKGELLVTGGNNDKSTSIFDPASGKWTEGNTMIITRGYQASATIADGRVFIIGGSWNGGTNYDKDGEIYDPDTEKYSFLKNALVRPMWTDDQDSGYRRDSHGWLFGWKNDTVFQGGPSKNMNWYYTHGDGDQKPAGTRADANDSMSGNAVMFDAVNGKIITFGGSPSYENSYATTDAYLIEIDEPGSQPKVTAAKNPNGEGMAYARTFHTSVVLPDGGVFTAGGQSYGVPFNDSNAHLTPELYDPKTNQFNEQQPNSIVRVYHSISLLLPDGRVFNGGSGLGVSAPTNHFDAQIYSPHYLFNQDGSLATRPTIDSVANKNLRAGDKLSISASIDVKNASLIRYGTTTHTVNTDQRRISLDSWTANEGSYETTLPGDSGILLPGPWMLFILNDDGVPSVSQTIHIQV",Km,purified protein,53 mM
